# Laboratory results as given in the kinase profiling compilation of Christmann-Franck et al. (2016).
# Target: MAPK10 (human) (UniProt P53779)
# Assay: KINOMEscan competition binding
# Details: compound 10.0 µM
row,SMILES,"kinase still bound, per cent of control [%]"
1,CCN1CCN(Cc2ccc(NC(=O)c3ccc(C)c(/C=C/c4cnc(Nc5cc(N6CCNCC6)nc(C)n5)cn4)c3)cc2C(F)(F)F)CC1,54
2,COc1cc(N2CCC(N3CCN(C)CC3)CC2)ccc1Nc1ncc(Cl)c(Nc2ccccc2S(=O)(=O)C(C)C)n1,2.6
3,CCOc1cc(N2CCC(N3CCCCC3)CC2)ccc1Nc1nc(Nc2ccccc2S(=O)(=O)C(C)C)c2cn[nH]c2n1,7.2
4,CCN1CCN(Cc2ccc(NC(=O)c3ccc(C)c(Oc4ccnc5[nH]ccc45)c3)cc2C(F)(F)F)CC1,12

# Target: RIPK4 (human) (UniProt P57078)
# Assay: KINOMEscan competition binding
# Details: compound 10.0 µM
row,SMILES,"kinase still bound, per cent of control [%]"
1,CCN1CCN(Cc2ccc(NC(=O)c3ccc(C)c(/C=C/c4cnc(Nc5cc(N6CCNCC6)nc(C)n5)cn4)c3)cc2C(F)(F)F)CC1,17
2,COc1cc(N2CCC(N3CCN(C)CC3)CC2)ccc1Nc1ncc(Cl)c(Nc2ccccc2S(=O)(=O)C(C)C)n1,40
3,CCOc1cc(N2CCC(N3CCCCC3)CC2)ccc1Nc1nc(Nc2ccccc2S(=O)(=O)C(C)C)c2cn[nH]c2n1,76

# Tested on: EGFR (human), P00533 [G719S]
# Assay: KINOMEscan competition binding
# Details: compound 10.0 µM
row,SMILES,"kinase still bound, per cent of control [%]"
1,CCN1CCN(Cc2ccc(NC(=O)c3ccc(C)c(/C=C/c4cnc(Nc5cc(N6CCNCC6)nc(C)n5)cn4)c3)cc2C(F)(F)F)CC1,5.4
2,COc1cc(N2CCC(N3CCN(C)CC3)CC2)ccc1Nc1ncc(Cl)c(Nc2ccccc2S(=O)(=O)C(C)C)n1,9.6
3,CCOc1cc(N2CCC(N3CCCCC3)CC2)ccc1Nc1nc(Nc2ccccc2S(=O)(=O)C(C)C)c2cn[nH]c2n1,100
4,CCN1CCN(Cc2ccc(NC(=O)c3ccc(C)c(Oc4ccnc5[nH]ccc45)c3)cc2C(F)(F)F)CC1,14

# Target: HIPK1 (human) (UniProt Q86Z02)
# Assay: KINOMEscan competition binding
# Details: compound 10.0 µM
row,SMILES,"kinase still bound, per cent of control [%]"
1,CCN1CCN(Cc2ccc(NC(=O)c3ccc(C)c(/C=C/c4cnc(Nc5cc(N6CCNCC6)nc(C)n5)cn4)c3)cc2C(F)(F)F)CC1,34
2,COc1cc(N2CCC(N3CCN(C)CC3)CC2)ccc1Nc1ncc(Cl)c(Nc2ccccc2S(=O)(=O)C(C)C)n1,40
3,CCOc1cc(N2CCC(N3CCCCC3)CC2)ccc1Nc1nc(Nc2ccccc2S(=O)(=O)C(C)C)c2cn[nH]c2n1,82
4,CCN1CCN(Cc2ccc(NC(=O)c3ccc(C)c(Oc4ccnc5[nH]ccc45)c3)cc2C(F)(F)F)CC1,6.2

# Target: STK33 (human) (UniProt Q9BYT3)
# Assay: KINOMEscan competition binding
# Details: compound 10.0 µM
row,SMILES,"kinase still bound, per cent of control [%]"
1,CCN1CCN(Cc2ccc(NC(=O)c3ccc(C)c(/C=C/c4cnc(Nc5cc(N6CCNCC6)nc(C)n5)cn4)c3)cc2C(F)(F)F)CC1,90
2,COc1cc(N2CCC(N3CCN(C)CC3)CC2)ccc1Nc1ncc(Cl)c(Nc2ccccc2S(=O)(=O)C(C)C)n1,0.1
3,CCOc1cc(N2CCC(N3CCCCC3)CC2)ccc1Nc1nc(Nc2ccccc2S(=O)(=O)C(C)C)c2cn[nH]c2n1,15

# Target: ANKK1 (human) (UniProt Q8NFD2)
# Assay: KINOMEscan competition binding
# Details: compound 10.0 µM
row,SMILES,"kinase still bound, per cent of control [%]"
1,CCN1CCN(Cc2ccc(NC(=O)c3ccc(C)c(/C=C/c4cnc(Nc5cc(N6CCNCC6)nc(C)n5)cn4)c3)cc2C(F)(F)F)CC1,9.6
2,COc1cc(N2CCC(N3CCN(C)CC3)CC2)ccc1Nc1ncc(Cl)c(Nc2ccccc2S(=O)(=O)C(C)C)n1,40
3,CCOc1cc(N2CCC(N3CCCCC3)CC2)ccc1Nc1nc(Nc2ccccc2S(=O)(=O)C(C)C)c2cn[nH]c2n1,100
4,CCN1CCN(Cc2ccc(NC(=O)c3ccc(C)c(Oc4ccnc5[nH]ccc45)c3)cc2C(F)(F)F)CC1,23

# Target: ERBB4 (human) (UniProt Q15303)
# Assay: KINOMEscan competition binding
# Details: compound 10.0 µM
# Sequence of ERBB4 (human) (Q15303 whole entry, looked up): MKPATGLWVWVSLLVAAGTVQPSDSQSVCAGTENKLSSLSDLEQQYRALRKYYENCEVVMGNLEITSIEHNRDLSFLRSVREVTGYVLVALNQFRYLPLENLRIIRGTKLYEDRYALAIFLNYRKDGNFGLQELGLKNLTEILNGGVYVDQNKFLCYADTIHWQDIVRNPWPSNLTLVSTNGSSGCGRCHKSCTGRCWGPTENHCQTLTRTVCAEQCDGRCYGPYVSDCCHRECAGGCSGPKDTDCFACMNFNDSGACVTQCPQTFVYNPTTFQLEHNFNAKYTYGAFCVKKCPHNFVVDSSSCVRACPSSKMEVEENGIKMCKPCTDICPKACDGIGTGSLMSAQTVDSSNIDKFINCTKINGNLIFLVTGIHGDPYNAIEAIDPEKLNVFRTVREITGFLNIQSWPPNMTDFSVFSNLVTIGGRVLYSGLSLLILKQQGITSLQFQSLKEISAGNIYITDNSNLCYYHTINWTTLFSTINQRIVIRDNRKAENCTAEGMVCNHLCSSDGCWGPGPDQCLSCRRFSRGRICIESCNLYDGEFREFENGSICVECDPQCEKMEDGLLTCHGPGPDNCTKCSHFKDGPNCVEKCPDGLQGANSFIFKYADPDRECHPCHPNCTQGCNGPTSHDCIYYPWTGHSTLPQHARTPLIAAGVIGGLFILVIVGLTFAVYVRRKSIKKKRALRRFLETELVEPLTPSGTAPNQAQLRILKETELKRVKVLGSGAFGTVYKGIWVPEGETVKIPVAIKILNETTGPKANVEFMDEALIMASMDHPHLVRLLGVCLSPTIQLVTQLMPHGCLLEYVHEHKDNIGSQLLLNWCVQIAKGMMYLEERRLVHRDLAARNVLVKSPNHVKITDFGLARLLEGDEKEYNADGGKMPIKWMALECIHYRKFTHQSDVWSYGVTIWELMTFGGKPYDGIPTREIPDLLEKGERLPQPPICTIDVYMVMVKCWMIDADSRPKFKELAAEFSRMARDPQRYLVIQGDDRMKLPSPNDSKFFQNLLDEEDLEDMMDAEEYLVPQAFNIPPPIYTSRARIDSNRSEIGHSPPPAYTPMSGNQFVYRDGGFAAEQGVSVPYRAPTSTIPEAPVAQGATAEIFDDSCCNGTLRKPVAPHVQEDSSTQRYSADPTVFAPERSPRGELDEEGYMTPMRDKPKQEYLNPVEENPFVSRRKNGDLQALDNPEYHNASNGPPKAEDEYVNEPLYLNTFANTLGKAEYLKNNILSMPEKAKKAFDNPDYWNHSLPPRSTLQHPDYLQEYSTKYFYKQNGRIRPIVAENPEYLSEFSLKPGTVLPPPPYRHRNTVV
row,SMILES,"kinase still bound, per cent of control [%]"
1,CCN1CCN(Cc2ccc(NC(=O)c3ccc(C)c(/C=C/c4cnc(Nc5cc(N6CCNCC6)nc(C)n5)cn4)c3)cc2C(F)(F)F)CC1,7
2,COc1cc(N2CCC(N3CCN(C)CC3)CC2)ccc1Nc1ncc(Cl)c(Nc2ccccc2S(=O)(=O)C(C)C)n1,1.2
3,CCOc1cc(N2CCC(N3CCCCC3)CC2)ccc1Nc1nc(Nc2ccccc2S(=O)(=O)C(C)C)c2cn[nH]c2n1,7.8
4,CCN1CCN(Cc2ccc(NC(=O)c3ccc(C)c(Oc4ccnc5[nH]ccc45)c3)cc2C(F)(F)F)CC1,28

# Tested on: EGFR (human), P00533 [746-750 del]
# Assay: KINOMEscan competition binding
# Details: compound 10.0 µM
row,SMILES,"kinase still bound, per cent of control [%]"
1,CCN1CCN(Cc2ccc(NC(=O)c3ccc(C)c(/C=C/c4cnc(Nc5cc(N6CCNCC6)nc(C)n5)cn4)c3)cc2C(F)(F)F)CC1,17
2,COc1cc(N2CCC(N3CCN(C)CC3)CC2)ccc1Nc1ncc(Cl)c(Nc2ccccc2S(=O)(=O)C(C)C)n1,0
3,CCOc1cc(N2CCC(N3CCCCC3)CC2)ccc1Nc1nc(Nc2ccccc2S(=O)(=O)C(C)C)c2cn[nH]c2n1,20
4,CCN1CCN(Cc2ccc(NC(=O)c3ccc(C)c(Oc4ccnc5[nH]ccc45)c3)cc2C(F)(F)F)CC1,8.4

# Target: WEE1 (human) (UniProt P30291)
# Assay: KINOMEscan competition binding
# Details: compound 10.0 µM
# Sequence of WEE1 (human) (P30291 whole entry, looked up): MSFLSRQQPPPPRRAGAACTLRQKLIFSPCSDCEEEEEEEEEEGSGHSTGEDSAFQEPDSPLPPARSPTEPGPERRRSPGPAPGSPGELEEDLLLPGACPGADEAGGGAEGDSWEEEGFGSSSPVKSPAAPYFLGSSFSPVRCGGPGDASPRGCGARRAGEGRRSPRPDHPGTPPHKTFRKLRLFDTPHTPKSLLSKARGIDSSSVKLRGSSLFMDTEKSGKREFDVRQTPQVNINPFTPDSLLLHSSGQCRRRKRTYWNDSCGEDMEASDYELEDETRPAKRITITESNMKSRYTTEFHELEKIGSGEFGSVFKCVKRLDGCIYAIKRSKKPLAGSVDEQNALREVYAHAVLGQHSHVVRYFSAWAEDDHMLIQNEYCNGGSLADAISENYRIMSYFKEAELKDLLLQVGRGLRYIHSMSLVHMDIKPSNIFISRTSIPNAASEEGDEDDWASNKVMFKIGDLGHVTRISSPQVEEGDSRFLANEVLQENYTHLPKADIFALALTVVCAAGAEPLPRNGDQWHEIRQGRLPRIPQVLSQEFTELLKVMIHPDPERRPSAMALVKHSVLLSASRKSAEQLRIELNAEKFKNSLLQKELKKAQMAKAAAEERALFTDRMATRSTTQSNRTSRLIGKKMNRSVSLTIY
row,SMILES,"kinase still bound, per cent of control [%]"
1,CCN1CCN(Cc2ccc(NC(=O)c3ccc(C)c(/C=C/c4cnc(Nc5cc(N6CCNCC6)nc(C)n5)cn4)c3)cc2C(F)(F)F)CC1,100
2,COc1cc(N2CCC(N3CCN(C)CC3)CC2)ccc1Nc1ncc(Cl)c(Nc2ccccc2S(=O)(=O)C(C)C)n1,17
3,CCOc1cc(N2CCC(N3CCCCC3)CC2)ccc1Nc1nc(Nc2ccccc2S(=O)(=O)C(C)C)c2cn[nH]c2n1,100

# Target: RIPK1 (human) (UniProt Q13546)
# Assay: KINOMEscan competition binding
# Details: compound 10.0 µM
# Sequence of RIPK1 (human) (Q13546 whole entry, looked up): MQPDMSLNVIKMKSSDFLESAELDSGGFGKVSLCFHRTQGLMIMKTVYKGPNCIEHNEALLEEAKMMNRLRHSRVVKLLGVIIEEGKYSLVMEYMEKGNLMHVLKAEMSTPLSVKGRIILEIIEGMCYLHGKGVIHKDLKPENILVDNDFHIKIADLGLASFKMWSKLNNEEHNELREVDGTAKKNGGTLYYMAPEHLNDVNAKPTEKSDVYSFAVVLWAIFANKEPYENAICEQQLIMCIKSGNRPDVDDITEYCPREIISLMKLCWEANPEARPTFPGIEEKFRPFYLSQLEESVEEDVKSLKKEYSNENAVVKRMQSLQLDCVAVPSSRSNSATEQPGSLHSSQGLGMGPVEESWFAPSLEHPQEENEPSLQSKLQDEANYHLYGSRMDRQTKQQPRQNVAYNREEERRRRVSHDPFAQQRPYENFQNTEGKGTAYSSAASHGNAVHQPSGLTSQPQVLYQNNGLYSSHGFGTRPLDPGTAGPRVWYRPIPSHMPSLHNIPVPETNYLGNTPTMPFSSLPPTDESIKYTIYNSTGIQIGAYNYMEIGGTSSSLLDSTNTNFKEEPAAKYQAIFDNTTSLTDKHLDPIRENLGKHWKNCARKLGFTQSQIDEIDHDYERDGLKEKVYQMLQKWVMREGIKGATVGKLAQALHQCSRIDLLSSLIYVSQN
row,SMILES,"kinase still bound, per cent of control [%]"
1,CCN1CCN(Cc2ccc(NC(=O)c3ccc(C)c(/C=C/c4cnc(Nc5cc(N6CCNCC6)nc(C)n5)cn4)c3)cc2C(F)(F)F)CC1,2.7
2,COc1cc(N2CCC(N3CCN(C)CC3)CC2)ccc1Nc1ncc(Cl)c(Nc2ccccc2S(=O)(=O)C(C)C)n1,18
3,CCOc1cc(N2CCC(N3CCCCC3)CC2)ccc1Nc1nc(Nc2ccccc2S(=O)(=O)C(C)C)c2cn[nH]c2n1,100
4,CCN1CCN(Cc2ccc(NC(=O)c3ccc(C)c(Oc4ccnc5[nH]ccc45)c3)cc2C(F)(F)F)CC1,0

# Target: PRKCD (human) (UniProt Q05655)
# Assay: KINOMEscan competition binding
# Details: compound 10.0 µM
row,SMILES,"kinase still bound, per cent of control [%]"
1,CCN1CCN(Cc2ccc(NC(=O)c3ccc(C)c(/C=C/c4cnc(Nc5cc(N6CCNCC6)nc(C)n5)cn4)c3)cc2C(F)(F)F)CC1,100
2,COc1cc(N2CCC(N3CCN(C)CC3)CC2)ccc1Nc1ncc(Cl)c(Nc2ccccc2S(=O)(=O)C(C)C)n1,28
3,CCOc1cc(N2CCC(N3CCCCC3)CC2)ccc1Nc1nc(Nc2ccccc2S(=O)(=O)C(C)C)c2cn[nH]c2n1,100

# Target: BRSK2 (human) (UniProt Q8IWQ3)
# Assay: KINOMEscan competition binding
# Details: compound 10.0 µM
# Sequence of BRSK2 (human) (Q8IWQ3 whole entry, looked up): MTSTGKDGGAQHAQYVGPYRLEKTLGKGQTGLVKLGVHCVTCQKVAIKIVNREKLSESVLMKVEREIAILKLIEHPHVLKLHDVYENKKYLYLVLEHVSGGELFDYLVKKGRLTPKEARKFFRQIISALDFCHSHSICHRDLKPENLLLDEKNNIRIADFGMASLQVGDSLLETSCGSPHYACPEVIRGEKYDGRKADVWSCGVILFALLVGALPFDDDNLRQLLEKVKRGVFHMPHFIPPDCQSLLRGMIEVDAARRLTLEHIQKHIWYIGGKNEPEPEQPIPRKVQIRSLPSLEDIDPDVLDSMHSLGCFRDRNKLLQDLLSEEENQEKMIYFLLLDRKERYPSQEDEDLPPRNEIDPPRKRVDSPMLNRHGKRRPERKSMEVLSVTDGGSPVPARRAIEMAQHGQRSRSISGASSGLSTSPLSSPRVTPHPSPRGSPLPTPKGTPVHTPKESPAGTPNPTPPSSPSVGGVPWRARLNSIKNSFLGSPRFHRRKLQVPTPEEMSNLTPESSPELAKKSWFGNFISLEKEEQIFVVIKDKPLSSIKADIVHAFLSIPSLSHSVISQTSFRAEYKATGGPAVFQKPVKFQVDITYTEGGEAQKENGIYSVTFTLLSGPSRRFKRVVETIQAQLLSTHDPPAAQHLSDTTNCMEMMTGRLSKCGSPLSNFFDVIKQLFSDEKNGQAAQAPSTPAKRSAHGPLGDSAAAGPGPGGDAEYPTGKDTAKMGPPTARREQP
row,SMILES,"kinase still bound, per cent of control [%]"
1,CCN1CCN(Cc2ccc(NC(=O)c3ccc(C)c(/C=C/c4cnc(Nc5cc(N6CCNCC6)nc(C)n5)cn4)c3)cc2C(F)(F)F)CC1,100
2,COc1cc(N2CCC(N3CCN(C)CC3)CC2)ccc1Nc1ncc(Cl)c(Nc2ccccc2S(=O)(=O)C(C)C)n1,0.5
3,CCOc1cc(N2CCC(N3CCCCC3)CC2)ccc1Nc1nc(Nc2ccccc2S(=O)(=O)C(C)C)c2cn[nH]c2n1,94

# Target: SIK2 (human) (UniProt Q9H0K1)
# Assay: KINOMEscan competition binding
# Details: compound 10.0 µM
row,SMILES,"kinase still bound, per cent of control [%]"
1,CCN1CCN(Cc2ccc(NC(=O)c3ccc(C)c(/C=C/c4cnc(Nc5cc(N6CCNCC6)nc(C)n5)cn4)c3)cc2C(F)(F)F)CC1,61
2,COc1cc(N2CCC(N3CCN(C)CC3)CC2)ccc1Nc1ncc(Cl)c(Nc2ccccc2S(=O)(=O)C(C)C)n1,7.5
3,CCOc1cc(N2CCC(N3CCCCC3)CC2)ccc1Nc1nc(Nc2ccccc2S(=O)(=O)C(C)C)c2cn[nH]c2n1,85

# Tested on: KIT (human), P10721 [V559D/V654A]
# Assay: KINOMEscan competition binding
# Details: compound 10.0 µM
# Sequence of KIT (human), P10721 [V559D/V654A] (P10721 whole entry V559D/V654A, looked up): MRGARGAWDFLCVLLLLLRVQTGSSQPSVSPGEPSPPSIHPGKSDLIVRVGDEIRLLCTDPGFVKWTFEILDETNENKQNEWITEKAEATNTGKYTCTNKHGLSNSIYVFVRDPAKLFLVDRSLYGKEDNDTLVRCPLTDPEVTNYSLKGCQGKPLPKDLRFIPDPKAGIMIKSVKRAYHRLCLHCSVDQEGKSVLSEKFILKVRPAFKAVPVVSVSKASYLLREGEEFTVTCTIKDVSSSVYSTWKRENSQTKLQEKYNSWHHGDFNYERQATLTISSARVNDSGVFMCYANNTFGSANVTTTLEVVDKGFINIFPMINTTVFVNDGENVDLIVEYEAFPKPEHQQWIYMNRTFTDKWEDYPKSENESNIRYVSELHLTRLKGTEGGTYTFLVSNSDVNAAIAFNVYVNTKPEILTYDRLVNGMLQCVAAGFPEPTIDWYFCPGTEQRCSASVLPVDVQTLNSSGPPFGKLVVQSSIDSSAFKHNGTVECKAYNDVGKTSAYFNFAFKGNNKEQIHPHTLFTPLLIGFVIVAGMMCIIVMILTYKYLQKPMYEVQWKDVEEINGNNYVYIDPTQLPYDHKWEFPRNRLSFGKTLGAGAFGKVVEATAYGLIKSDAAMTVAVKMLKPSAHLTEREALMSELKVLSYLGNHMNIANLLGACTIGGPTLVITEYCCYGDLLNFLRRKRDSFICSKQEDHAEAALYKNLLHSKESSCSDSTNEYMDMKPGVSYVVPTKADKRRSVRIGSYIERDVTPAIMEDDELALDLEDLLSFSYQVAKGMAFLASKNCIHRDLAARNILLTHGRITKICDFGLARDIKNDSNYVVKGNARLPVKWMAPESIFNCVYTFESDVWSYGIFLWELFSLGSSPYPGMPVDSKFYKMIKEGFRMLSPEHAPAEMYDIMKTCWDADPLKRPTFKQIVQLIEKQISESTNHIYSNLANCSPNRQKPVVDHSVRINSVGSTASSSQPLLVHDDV
row,SMILES,"kinase still bound, per cent of control [%]"
1,CCN1CCN(Cc2ccc(NC(=O)c3ccc(C)c(/C=C/c4cnc(Nc5cc(N6CCNCC6)nc(C)n5)cn4)c3)cc2C(F)(F)F)CC1,3.7
2,COc1cc(N2CCC(N3CCN(C)CC3)CC2)ccc1Nc1ncc(Cl)c(Nc2ccccc2S(=O)(=O)C(C)C)n1,7.4
3,CCOc1cc(N2CCC(N3CCCCC3)CC2)ccc1Nc1nc(Nc2ccccc2S(=O)(=O)C(C)C)c2cn[nH]c2n1,100
4,CCN1CCN(Cc2ccc(NC(=O)c3ccc(C)c(Oc4ccnc5[nH]ccc45)c3)cc2C(F)(F)F)CC1,2.7

# Target: STK38L (human) (UniProt Q9Y2H1)
# Assay: KINOMEscan competition binding
# Details: compound 10.0 µM
row,SMILES,"kinase still bound, per cent of control [%]"
1,CCN1CCN(Cc2ccc(NC(=O)c3ccc(C)c(/C=C/c4cnc(Nc5cc(N6CCNCC6)nc(C)n5)cn4)c3)cc2C(F)(F)F)CC1,84
2,COc1cc(N2CCC(N3CCN(C)CC3)CC2)ccc1Nc1ncc(Cl)c(Nc2ccccc2S(=O)(=O)C(C)C)n1,7.3
3,CCOc1cc(N2CCC(N3CCCCC3)CC2)ccc1Nc1nc(Nc2ccccc2S(=O)(=O)C(C)C)c2cn[nH]c2n1,100
4,CCN1CCN(Cc2ccc(NC(=O)c3ccc(C)c(Oc4ccnc5[nH]ccc45)c3)cc2C(F)(F)F)CC1,6.8

# Target: EPHA3 (human) (UniProt P29320)
# Assay: KINOMEscan competition binding
# Details: compound 10.0 µM
row,SMILES,"kinase still bound, per cent of control [%]"
1,CCN1CCN(Cc2ccc(NC(=O)c3ccc(C)c(/C=C/c4cnc(Nc5cc(N6CCNCC6)nc(C)n5)cn4)c3)cc2C(F)(F)F)CC1,4.4
2,COc1cc(N2CCC(N3CCN(C)CC3)CC2)ccc1Nc1ncc(Cl)c(Nc2ccccc2S(=O)(=O)C(C)C)n1,40
3,CCOc1cc(N2CCC(N3CCCCC3)CC2)ccc1Nc1nc(Nc2ccccc2S(=O)(=O)C(C)C)c2cn[nH]c2n1,100
4,CCN1CCN(Cc2ccc(NC(=O)c3ccc(C)c(Oc4ccnc5[nH]ccc45)c3)cc2C(F)(F)F)CC1,3.4

# Target: EPHA6 (human) (UniProt Q9UF33)
# Assay: KINOMEscan competition binding
# Details: compound 10.0 µM
row,SMILES,"kinase still bound, per cent of control [%]"
1,CCN1CCN(Cc2ccc(NC(=O)c3ccc(C)c(/C=C/c4cnc(Nc5cc(N6CCNCC6)nc(C)n5)cn4)c3)cc2C(F)(F)F)CC1,51
2,COc1cc(N2CCC(N3CCN(C)CC3)CC2)ccc1Nc1ncc(Cl)c(Nc2ccccc2S(=O)(=O)C(C)C)n1,3.1
3,CCOc1cc(N2CCC(N3CCCCC3)CC2)ccc1Nc1nc(Nc2ccccc2S(=O)(=O)C(C)C)c2cn[nH]c2n1,100

# Tested on: EIF2AK4 KD2 (human), Q9P2K8 [S808G]
# Assay: KINOMEscan competition binding
# Details: compound 10.0 µM
row,SMILES,"kinase still bound, per cent of control [%]"
1,CCN1CCN(Cc2ccc(NC(=O)c3ccc(C)c(/C=C/c4cnc(Nc5cc(N6CCNCC6)nc(C)n5)cn4)c3)cc2C(F)(F)F)CC1,0.8
2,COc1cc(N2CCC(N3CCN(C)CC3)CC2)ccc1Nc1ncc(Cl)c(Nc2ccccc2S(=O)(=O)C(C)C)n1,4.5
3,CCOc1cc(N2CCC(N3CCCCC3)CC2)ccc1Nc1nc(Nc2ccccc2S(=O)(=O)C(C)C)c2cn[nH]c2n1,100

# Target: AURKB (human) (UniProt Q96GD4)
# Assay: KINOMEscan competition binding
# Details: compound 10.0 µM
# Sequence of AURKB (human) (Q96GD4 whole entry, looked up): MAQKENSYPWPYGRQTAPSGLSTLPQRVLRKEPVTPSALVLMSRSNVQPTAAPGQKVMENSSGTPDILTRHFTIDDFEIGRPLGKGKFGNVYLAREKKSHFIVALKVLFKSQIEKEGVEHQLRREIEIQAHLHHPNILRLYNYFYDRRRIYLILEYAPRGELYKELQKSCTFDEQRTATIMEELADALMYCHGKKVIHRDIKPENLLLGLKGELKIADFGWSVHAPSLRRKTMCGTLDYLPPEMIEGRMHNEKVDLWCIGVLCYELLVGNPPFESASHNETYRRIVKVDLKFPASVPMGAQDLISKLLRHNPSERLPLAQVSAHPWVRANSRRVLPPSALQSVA
row,SMILES,"kinase still bound, per cent of control [%]"
1,CCN1CCN(Cc2ccc(NC(=O)c3ccc(C)c(/C=C/c4cnc(Nc5cc(N6CCNCC6)nc(C)n5)cn4)c3)cc2C(F)(F)F)CC1,100
2,COc1cc(N2CCC(N3CCN(C)CC3)CC2)ccc1Nc1ncc(Cl)c(Nc2ccccc2S(=O)(=O)C(C)C)n1,1
3,CCOc1cc(N2CCC(N3CCCCC3)CC2)ccc1Nc1nc(Nc2ccccc2S(=O)(=O)C(C)C)c2cn[nH]c2n1,100

# Target: SLK (human) (UniProt Q9H2G2)
# Assay: KINOMEscan competition binding
# Details: compound 10.0 µM
row,SMILES,"kinase still bound, per cent of control [%]"
1,CCN1CCN(Cc2ccc(NC(=O)c3ccc(C)c(/C=C/c4cnc(Nc5cc(N6CCNCC6)nc(C)n5)cn4)c3)cc2C(F)(F)F)CC1,2.4
2,COc1cc(N2CCC(N3CCN(C)CC3)CC2)ccc1Nc1ncc(Cl)c(Nc2ccccc2S(=O)(=O)C(C)C)n1,0.1
3,CCOc1cc(N2CCC(N3CCCCC3)CC2)ccc1Nc1nc(Nc2ccccc2S(=O)(=O)C(C)C)c2cn[nH]c2n1,14
4,CCN1CCN(Cc2ccc(NC(=O)c3ccc(C)c(Oc4ccnc5[nH]ccc45)c3)cc2C(F)(F)F)CC1,2
